Measurements as given in ChEMBL document CHEMBL4680256, “Indole chalcones: Design, synthesis, in vitro and in silico evaluation against Mycobacterium tuberculosis” (Eur J Med Chem, 2020).
Converted amounts (≈) assume the structure as drawn.

Legend:
[1] = test system: Mycobacterium tuberculosis; experiment: Antimycobacterial activity against Mycobacterium tuberculosis H37Rv assessed as reduction in bacterial growth preincubated for 72 hrs followed by phAE202 and Cacl2 addition and measured after 4 hrs by luciferase reporter mycobacterio-phage assay; assay type: functional; details: time 76 hrs
[2] = test system: Mycobacterium tuberculosis; experiment: Antimycobacterial activity against Mycobacterium tuberculosis H37Rv assessed as inhibition of bacterial growth at 100 ug/ml preincubated for 72 hrs followed by phAE202 and Cacl2 addition and measured after 4 hrs by luciferase reporter mycobacterio-phage assay; assay type: functional; details: time 76 hrs
[3] = test system: Mycobacterium tuberculosis; experiment: Antimycobacterial activity against Mycobacterium tuberculosis H37Rv assessed as inhibition of bacterial growth at 50 ug/ml preincubated for 72 hrs followed by phAE202 and Cacl2 addition and measured after 4 hrs by luciferase reporter mycobacterio-phage assay; assay type: functional; details: time 76 hrs
[4] = Cytotoxicity against human Mo7e cells assessed as cell viability at 10 to 50 ug/ml incubated for 24 hrs by WST-1 assay relative to control; assay type: cell-based, M07E; details: at 10 to 50 µg/mL, dose 10-50 µg/ml, read-out: Activity
[5] = Cytotoxicity against mouse BA/F3 cells assessed as cell viability at 10 to 50 ug/ml incubated for 24 hrs by WST-1 assay relative to control; assay type: cell-based, BaF3; details: at 10 to 50 µg/mL, dose 10-50 µg/ml, read-out: Activity

For `O=C(/C=C/c1c[nH]c2ccccc12)c1ccc(F)cc1`, which MIC [1] is on record?
Its MIC is 188 µM (≈ 49.9 µg/mL).

And the inhibition at 100 µg/mL [2]?
The inhibition at 100 µg/mL was 54.2%.

And the inhibition at 50 µg/mL [3]?
The inhibition at 50 µg/mL was 50.3%.

What does the source list for `COc1ccc(C(=O)/C=C/c2c[nH]c3ccccc23)cc1OC`?
MIC [1]: > 325 µM; inhibition at 100 µg/mL [2]: 31.7%; inhibition at 50 µg/mL [3]: 27.1%

For `O=C(/C=C/c1c[nH]c2ccccc12)c1ccc2c(c1)OCO2`, which MIC [1] is on record?
The MIC was 171 µM (≈ 49.8 µg/mL).

What about the inhibition at 100 µg/mL [2] of the same compound?
Its inhibition at 100 µg/mL is 75.7%.

What about the inhibition at 50 µg/mL [3] of the same compound?
The inhibition at 50 µg/mL was 66.8%.

Which MIC [1] does the source give for `O=C(/C=C/c1c[nH]c2ccccc12)c1ccccn1` here?
The MIC was 201 µM (≈ 49.9 µg/mL).

What about the inhibition at 100 µg/mL [2] of the same compound?
The inhibition at 100 µg/mL was 62%.

What about the inhibition at 50 µg/mL [3] of the same compound?
The inhibition at 50 µg/mL was 53.1%.

What does the source list for `O=C(/C=C/c1c[nH]c2ccccc12)c1ccc(O)cc1`?
MIC [1]: 189 µM (≈ 49.8 µg/mL); inhibition at 100 µg/mL [2]: 55.1%; inhibition at 50 µg/mL [3]: 54.9%

With `Cc1ccc(C(=O)/C=C/c2c[nH]c3ccccc23)cc1` as the compound, how does the MIC [1] read?
The MIC was greater than 382 µM.

And the inhibition at 100 µg/mL [2]?
Its inhibition at 100 µg/mL is 50.9%.

And the inhibition at 50 µg/mL [3]?
The inhibition at 50 µg/mL was 41.7%.

With `O=C(/C=C/c1c[nH]c2ccccc12)c1cccnc1` as the compound, how does the MIC [1] read?
The MIC was 201 µM (≈ 49.9 µg/mL).

And the inhibition at 100 µg/mL [2]?
Its inhibition at 100 µg/mL is 70.7%.

And the inhibition at 50 µg/mL [3]?
The inhibition at 50 µg/mL was 63.1%.

Which MIC [1] does the source give for `O=C(/C=C/c1c[nH]c2ccccc12)c1ccncc1` here?
Its MIC is 201 µM (≈ 49.9 µg/mL).

What about the inhibition at 100 µg/mL [2] of the same compound?
Its inhibition at 100 µg/mL is 64.2%.

What about the inhibition at 50 µg/mL [3] of the same compound?
The inhibition at 50 µg/mL was 58.4%.

Which MIC [1] does the source give for `O=C(/C=C/c1c[nH]c2ccccc12)c1ccc(Cl)cc1` here?
The MIC was greater than 355 µM.

What about the inhibition at 100 µg/mL [2] of the same compound?
The inhibition at 100 µg/mL was 50.6%.

What about the inhibition at 50 µg/mL [3] of the same compound?
The inhibition at 50 µg/mL was 48.6%.

With `O=C(/C=C/c1c[nH]c2ccccc12)c1ccc2ccccc2c1` as the compound, how does the MIC [1] read?
Its MIC is greater than 336 µM.

What about the inhibition at 100 µg/mL [2] of the same compound?
The inhibition at 100 µg/mL was 41.8%.

And the inhibition at 50 µg/mL [3]?
Its inhibition at 50 µg/mL is 30.8%.

Which results are given for `O=C(/C=C/c1c[nH]c2ccccc12)c1ccc(-c2ccoc2)cc1`?
MIC [1]: 210 µM (≈ 65.8 µg/mL); inhibition at 100 µg/mL [2]: 87.7%; inhibition at 50 µg/mL [3]: 85.3%; viability at 24 h [4]: > 80%; viability at 24 h [5]: > 60%

Which MIC [1] does the source give for `O=C1CCC/C1=C\c1cc2ccccc2[nH]1` here?
Its MIC is 236 µM (≈ 49.9 µg/mL).

What about the inhibition at 100 µg/mL [2] of the same compound?
The inhibition at 100 µg/mL was 86.3%.

And the inhibition at 50 µg/mL [3]?
The inhibition at 50 µg/mL was 84.3%.

What about the viability at 24 h [4] of the same compound?
The viability at 24 h was greater than 80%.

What about the viability at 24 h [5] of the same compound?
Its viability at 24 h is greater than 60%.

Which MIC [1] does the source give for `O=C(/C=C/c1c[nH]c2ccccc12)c1cccc([N+](=O)[O-])c1` here?
The MIC was greater than 342 µM.

What about the inhibition at 100 µg/mL [2] of the same compound?
Its inhibition at 100 µg/mL is 51.7%.

What about the inhibition at 50 µg/mL [3] of the same compound?
The inhibition at 50 µg/mL was 48.7%.

For `O=C(/C=C/c1c[nH]c2ccccc12)c1ccc(-n2ccnc2)cc1`, which MIC [1] is on record?
The MIC was 159 µM (≈ 49.8 µg/mL).

And the inhibition at 100 µg/mL [2]?
The inhibition at 100 µg/mL was 70.7%.

And the inhibition at 50 µg/mL [3]?
The inhibition at 50 µg/mL was 63.6%.

Which MIC [1] does the source give for `O=C1CCCC/C1=C\c1cc2ccccc2[nH]1` here?
The MIC was 221 µM (≈ 49.8 µg/mL).

And the inhibition at 100 µg/mL [2]?
Its inhibition at 100 µg/mL is 62%.

And the inhibition at 50 µg/mL [3]?
The inhibition at 50 µg/mL was 53.1%.

With `O=C(/C=C/c1c[nH]c2ccccc12)c1ccc(Br)cc1` as the compound, how does the MIC [1] read?
Its MIC is 155 µM (≈ 50.6 µg/mL).

What about the inhibition at 100 µg/mL [2] of the same compound?
The inhibition at 100 µg/mL was 65.9%.

What about the inhibition at 50 µg/mL [3] of the same compound?
The inhibition at 50 µg/mL was 64.9%.

Which MIC [1] does the source give for `COc1cccc(C(=O)/C=C/c2c[nH]c3ccccc23)c1` here?
Its MIC is greater than 360 µM.

And the inhibition at 100 µg/mL [2]?
Its inhibition at 100 µg/mL is 36.7%.

What about the inhibition at 50 µg/mL [3] of the same compound?
Its inhibition at 50 µg/mL is 27.1%.

With `O=C(/C=C/c1c[nH]c2ccccc12)c1ccc(Cl)cc1Cl` as the compound, how does the MIC [1] read?
Its MIC is 164 µM (≈ 51.9 µg/mL).

What about the inhibition at 100 µg/mL [2] of the same compound?
Its inhibition at 100 µg/mL is 55.2%.

What about the inhibition at 50 µg/mL [3] of the same compound?
Its inhibition at 50 µg/mL is 52.3%.

With `O=C(/C=C/c1c[nH]c2ccccc12)c1ccc(-c2ccsc2)cc1` as the compound, how does the MIC [1] read?
The MIC was 197 µM (≈ 64.9 µg/mL).

What about the inhibition at 100 µg/mL [2] of the same compound?
The inhibition at 100 µg/mL was 63.4%.

And the inhibition at 50 µg/mL [3]?
Its inhibition at 50 µg/mL is 62%.

For `O=C(/C=C/c1c[nH]c2ccccc12)c1cccc(C(F)(F)F)c1`, which MIC [1] is on record?
The MIC was greater than 317 µM.

What about the inhibition at 100 µg/mL [2] of the same compound?
The inhibition at 100 µg/mL was 26.3%.

And the inhibition at 50 µg/mL [3]?
Its inhibition at 50 µg/mL is 24.5%.

Which MIC [1] does the source give for `O=C(/C=C/c1c[nH]c2ccccc12)N1CCN(c2ccc(O)cc2)CC1` here?
Its MIC is 143 µM (≈ 49.7 µg/mL).

What about the inhibition at 100 µg/mL [2] of the same compound?
Its inhibition at 100 µg/mL is 76.4%.

What about the inhibition at 50 µg/mL [3] of the same compound?
The inhibition at 50 µg/mL was 63.8%.

What does the source list for `O=C(/C=C/c1c[nH]c2ccccc12)c1ccc(-c2cccs2)cc1`?
MIC [1]: 197 µM (≈ 64.9 µg/mL); inhibition at 100 µg/mL [2]: 87.2%; inhibition at 50 µg/mL [3]: 82%; viability at 24 h [4]: > 80%; viability at 24 h [5]: > 60%

What does the source list for `O=C(/C=C/c1c[nH]c2ccccc12)c1ccc(C(F)(F)F)cc1`?
MIC [1]: > 317 µM; inhibition at 100 µg/mL [2]: 31.2%; inhibition at 50 µg/mL [3]: 29.7%

For `Nc1cccc(C(=O)/C=C/c2c[nH]c3ccccc23)c1`, which MIC [1] is on record?
The MIC was greater than 381 µM.

And the inhibition at 100 µg/mL [2]?
The inhibition at 100 µg/mL was 48.7%.

And the inhibition at 50 µg/mL [3]?
Its inhibition at 50 µg/mL is 37.2%.

For `O=C(/C=C/c1c[nH]c2ccccc12)c1ccc(-c2ccc[nH]2)cc1`, which MIC [1] is on record?
Its MIC is greater than 423 µM.

What about the inhibition at 100 µg/mL [2] of the same compound?
Its inhibition at 100 µg/mL is 49.4%.

What about the inhibition at 50 µg/mL [3] of the same compound?
Its inhibition at 50 µg/mL is 26.4%.

What does the source list for `NNC(=O)c1ccncc1` [ISONIAZID]?
MIC [1]: 1.4 µM (≈ 0.192 µg/mL); inhibition at 100 µg/mL [2]: > 99%

Which MIC [1] does the source give for `CO[C@H]1/C=C/O[C@@]2(C)Oc3c(C)c(O)c4c(O)c(c(/C=N/N5CCN(C)CC5)c(O)c4c3C2=O)NC(=O)/C(C)=C\C=C\[C@H](C)[C@H](O)[C@@H](C)[C@@H](O)[C@@H](C)[C@H](OC(C)=O)[C@@H]1C` [RIFAMPIN] here?
The MIC was 2.4 µM (≈ 1.98 µg/mL).

What about the inhibition at 100 µg/mL [2] of the same compound?
Its inhibition at 100 µg/mL is greater than 99%.
